Literature values, collected in PubChem BioAssay AID1259409 (Chemical Carcinogenesis Research Information System (CCRIS), 2018).
“And” between values parts separate entries of the source, which are not always exact repeats. Equal values may be shown once.

System: rodent chemically induced tumor inhibition, incidence and multiplicity
Assay: CCRIS tumor inhibitor studies
Details: Route [Inhibitor]: ORAL; for tumour outcome (control, treated, inhibition, significance): Promoter: NONE USED; for outcome: Carcinogen: NONE, Strain/Sex: APC/MIN/MALE, Promoter: NONE

In the case of `CN1C(C(=O)Nc2ccccn2)=C(O)c2ccccc2S1(=O)=O`, the “tumour outcome (control, treated, inhibition, significance)” value (Carcinogen: N-BUTYL-N-(4-HYDROXYBUTYL)NITROSAMINE, 3817-11-6, Dose [Inhibitor]: 0, 0.0075% IN DIET FOR 12 WK BEGINNING POST CARCINOGEN TREATMENT (STUDY DURATION: 20 WK), Species: RAT, Strain/Sex: F344/MALE, Target Tissue: Type of Lesion: URINARY BLADDER: TRANSITIONAL CELL CARCINOMA, Dose [Carcinogen]: 0.05% IN DRINKING WATER FOR 8 WK) is listed as 10/12 (83%), 4/12 (33%), 60%, p<0.05, the “tumour outcome (control, treated, inhibition, significance)” value (Carcinogen: N-BUTYL-N-(4-HYDROXYBUTYL)NITROSAMINE, 3817-11-6, Dose [Inhibitor]: 0, 15 MG/KG DIET BEGINNING 1 WK PRIOR TO CARCINOGEN TREATMENT AND CONTINUING FOR DURATION OF STUDY (STUDY DURATION: 180, Species: MOUSE, Strain/Sex: BDF/MALE, Target Tissue: Type of Lesion: BLADDER: CARCINOMA, Dose [Carcinogen]: 7.5 MG IN 0.1 ML OF ETHANOL:WATER (20:80) 1/WK FOR 8 WK) is listed as 25/63 (40%), 5/69 (7%), 83%, p<0.0001 and the “tumour outcome (control, treated, inhibition, significance)” value (Carcinogen: N-BUTYL-N-(4-HYDROXYBUTYL)NITROSAMINE, 3817-11-6, Dose [Inhibitor]: 0, 30 MG/KG DIET BEGINNING 1 WK PRIOR TO CARCINOGEN TREATMENT AND CONTINUING FOR DURATION OF STUDY (STUDY DURATION: 180, Species: MOUSE, Strain/Sex: BDF/MALE, Target Tissue: Type of Lesion: BLADDER: CARCINOMA, Dose [Carcinogen]: 7.5 MG IN 0.1 ML OF ETHANOL:WATER (20:80) 1/WK FOR 8 WK) is listed as 28/65 (43%), 7/56 (13%), 70%, p<0.001. The “tumour outcome (control, treated, inhibition, significance)” value (Carcinogen: N-BUTYL-N-(4-HYDROXYBUTYL)NITROSAMINE, 3817-11-6, Dose [Inhibitor]: 0, 75 PPM IN DIET FOR 12 WK BEGINNING POST CARCINOGEN TREATMENT (STUDY DURATION: 20 WK), Species: RAT, Strain/Sex: F344/MALE, Target Tissue: Type of Lesion: URINARY BLADDER: TRANSITIONAL CELL CARCINOMA, Dose [Carcinogen]: 0.05% IN DRINKING WATER FOR 8 WK) was 18/20 (90%), 3/19 (16%), 82%, p<0.0001, the “tumour outcome (control, treated, inhibition, significance)” value (Carcinogen: N-METHYL-N-NITROSOUREA, 684-93-5, Dose [Inhibitor]: 130 MG/KG DIET DAILY STARTING 7 D AFTER LAST CARCINOGEN TREATMENT AND CONTINUING FOR 19 WK (STUDY DURATION: 21 WK), Species: RAT, Strain/Sex: SPRAGUE-DAWLEY/MALE, Target Tissue: Type of Lesion: INTESTINES: TUMOR, Dose [Carcinogen]: 0.8% IN 0.5 ML WATER 3 TIMES AT 2 D INTERVALS) was 9/9 (100%), 5/10 (50%), 50%, not calculated and 9/9 (100%), 3/9 (33%), 67%, not calculated and the “tumour outcome (control, treated, inhibition, significance)” value (Carcinogen: N-METHYLNITROSOUREA, 684-93-5, Dose [Inhibitor]: 0, 130 MG/KG VEGETABLE DIET (2.5 MG/D) BEGINNING 7 D POST LAST CARCINOGEN TREATMENT AND CONTINUING FOR STUDY DURATION (S, Species: RAT, Strain/Sex: CD-1/MALE, Target Tissue: Type of Lesion: INTESTINE: TUMOR, Dose [Carcinogen]: 0.5 ML OF 0.8% WATER SOLUTION 1/2 D FOR 6 D) was 9/9 (100%), 3/9 (33%), 67%, not calculated. The outcome (Dose [Inhibitor]: 12 PPM IN DIET FOR 2 MONTHS (STUDY DURATION: 2 MONTHS), Species: MOUSE, Target Tissue: Type of Lesion: DISTAL SMALL INTESTINE: TUMOR) was 10.38, 5.47, 47%, p<0.01, the outcome (Dose [Inhibitor]: 12 PPM IN DIET FOR 2 MONTHS (STUDY DURATION: 2 MONTHS), Species: MOUSE, Target Tissue: Type of Lesion: MIDDLE SMALL INTESTINE: TUMOR) was 23.75, 16.20, 32%, not significant and the outcome (Dose [Inhibitor]: 12 PPM IN DIET FOR 2 MONTHS (STUDY DURATION: 2 MONTHS), Species: MOUSE, Target Tissue: Type of Lesion: PROXIMAL SMALL INTESTINE: TUMOR) was 7.63, 14.80, -94%, p<0.01. For the same compound, the outcome (Dose [Inhibitor]: 25 PPM IN DIET FOR 2 MONTHS (STUDY DURATION: 2 MONTHS), Species: MOUSE, Target Tissue: Type of Lesion: DISTAL SMALL INTESTINE: TUMOR) was 10.38, 2.50, 76%, p<0.001, the outcome (Dose [Inhibitor]: 25 PPM IN DIET FOR 2 MONTHS (STUDY DURATION: 2 MONTHS), Species: MOUSE, Target Tissue: Type of Lesion: MIDDLE SMALL INTESTINE: TUMOR) was 23.75, 10.93, 38%, p<0.001 and the outcome (Dose [Inhibitor]: 50 PPM IN DIET FOR 2 MONTHS (STUDY DURATION: 2 MONTHS), Species: MOUSE, Target Tissue: Type of Lesion: DISTAL SMALL INTESTINE: TUMOR) was 10.38, 2.60, 75%, p<0.001. For the same compound, the outcome (Dose [Inhibitor]: 50 PPM IN DIET FOR 2 MONTHS (STUDY DURATION: 2 MONTHS), Species: MOUSE, Target Tissue: Type of Lesion: MIDDLE SMALL INTESTINE: TUMOR) was 23.75, 14.73, 38%, p<0.05, the outcome (Dose [Inhibitor]: 100 PPM IN DIET FOR 2 MONTHS (STUDY DURATION: 2 MONTHS), Species: MOUSE, Target Tissue: Type of Lesion: DISTAL SMALL INTESTINE: TUMOR) was 10.38, 1.60, 85%, p<0.001 and the outcome (Dose [Inhibitor]: 100 PPM IN DIET FOR 2 MONTHS (STUDY DURATION: 2 MONTHS), Species: MOUSE, Target Tissue: Type of Lesion: MIDDLE SMALL INTESTINE: TUMOR) was 23.75, 10.40, 56%, p<0.001.
